Assay [1] has as its target recombinant D.RET6 (SEQ ID 4), Dermacentor reticulatus histamine-binding protein (Dermacentor reticulatus, UniProt Q8WSK7). In words: biochemical. The method, then: (§1) The recombinant D.RET6 was diluted with 1.5% γ-globulin (Sigma) and used in one set of experiments. Fifty microlitres of the protein solution were incubated with 50 µl of 1:2500 dilution of [2,5-^3H] histamine diHCl (1µCi/µl) solution (Amersham) at room temperature for at least 3 hours with or without increasing concentrations of unlabelled histamine. All the assays were carried out in a total volume of 200 µl. The incubations were terminated by adding 125 µl of PEG 8000 (36% w/v in PBS) and centrifuged in a microfuge at maximum speed for 12 minutes to collect the bound protein. The tubes were spun once more to remove all supernatant without disturbing the pellets. Subsequently, pellets were redissolved in PBS. Three millilitres of liquid scintillation cocktail (Beckman) were added and the radioactivity measured using a liquid scintillation counter (Wallac, 1217 Rackbeta).
To study the effect of serotonin on histamine binding activity, 10 µl of PBS (as a control experiment) or 10 µl serotonin (50 µM or 500 µM) were added to each 200 µl binding assay.
For data analysis, the ligand affinity constant was estimated from Scatchard plots as previously described by Hulme, 1992, Receptor-Ligand Interactions, IRL Press, Oxford). The nonlinear regression was used to fit the data (Motulsky, 1987, FASEB J, 1: 365-374) and two asymtotic straight lines were made as described elsewhere (Feldman, 1972, Analytical Biochem 48: 317).

The target of assay [2] is Av-HBP (SEQ. ID. 6), semi-purified recombinant protein, Amblyomma variegatum. To be noted: read-out: equilibrium dissociation constant (Kd) for histamine; results not shown.
For assay [3], the target named is T1, recombinant D.RET6 (Dermacentor reticulatus, UniProt Q8WSK7).
T1 sequence (Q8WSK7 18-209): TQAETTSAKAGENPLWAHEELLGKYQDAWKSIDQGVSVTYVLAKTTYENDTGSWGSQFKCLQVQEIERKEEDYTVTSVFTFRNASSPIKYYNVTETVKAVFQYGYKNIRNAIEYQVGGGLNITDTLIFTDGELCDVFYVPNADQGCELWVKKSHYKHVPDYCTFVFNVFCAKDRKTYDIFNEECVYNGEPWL
In words: Competitive binding assay: unlabelled ligands displacing radioactive histamine from recombinant D.RET6. To be noted: graphically derived from competitive binding curve (Figure 15), read-out: IC50 of the unlabelled ligands in displacing the radioactive histamine from the binding site by 50%. The method, then:
as §1
In a second set of experiments, a competitive binding assay was used to compare three unlabelled competitor ligands (histamine, 1-methylhistamine and 3-methylhistamine).

Each structure is given as a SMILES string. Read-outs that look alike come from different tables or passages of the source.

A word on the Kd: it is the constant that tells how readily two partners part at equilibrium. A word on the IC50: it is the concentration that inhibits the measured activity by half.

Take `NCCc1c[nH]cn1` [histamine]: the Kd in assay [1] (Kd, first (higher affinity) histamine binding site, final concentration of 2.38µM serotonin) is 1.1 nM; in assay [1] (Kd, first (higher affinity) histamine binding site, no serotonin, approximate, from asymptotic lines of Scatchard plot), about 60 nM; in assay [1] (Kd, first (higher affinity) histamine binding site, with 23.8µM serotonin), 1.3 nM; in assay [1] (read-out: Kd, second (lower affinity) histamine binding site, final concentration of 2.38µM serotonin) it was 1000 nM; in assay [1] (read-out: Kd, second (lower affinity) histamine binding site, no serotonin, approximate, from asymptotic lines of Scatchard plot), about 2000 nM; in assay [1] (read-out: Kd, second (lower affinity) histamine binding site, with 23.8µM serotonin), 1000 nM. Moreover, the Kd in assay [2] is about 7.3 nM. Further, in assay [1] (in the presence of serotonin versus no serotonin), the “increase of binding affinity of D.RET6 for histamine” value is “sixty-fold”. Moreover, the IC50 in assay [3] is 133 nM.
